The source made the active and inactive calls. No cut-off for these calls is given here.
Assays:
[1] = tested on: A549; assay: Induction of apoptosis in human A549 cells assessed as late apoptotic cells at 5 uM incubated for 48 hrs by Annexin V-FITC/PI staining based flow cytometry analysis (reference value: 2.52%); assay type: functional
[2] = tested on: A549; assay: Induction of apoptosis in human A549 cells assessed as late apoptotic cells at 10 uM incubated for 48 hrs by Annexin V-FITC/PI staining based flow cytometry analysis (reference value: 2.52%); assay type: functional
[3] = Metabolic stability in human liver microsomes assessed as parent compound remaining at 100 uM incubated for 60 mins in presence of NADPH by LC-MS/MS analysis
[4] = tested on: MV4-11; assay: Antiproliferative activity against human MV4-11 cells expressing BAX assessed as cell growth inhibition incubated for 72 hrs by trypan blue cell counting analysis; assay type: functional
[5] = tested on: A549; assay: Induction of cell cycle arrest in human A549 cells assessed as accumulation of cells at S phase at 2.5 uM incubated for 48 hrs by RNase/PI staining based flow cytometry analysis (reference value: 26.01%); assay type: functional
[6] = tested on: A549; assay: Induction of cell cycle arrest in human A549 cells assessed as accumulation of cells at G2/M phase at 2.5 uM incubated for 48 hrs by RNase/PI staining based flow cytometry analysis (reference value: 18.97%); assay type: functional
[7] = tested on: A549; assay: Inhibition of colony formation in human A549 cells incubated for 2 weeks by crystal violet staining based analysis; assay type: functional, cell-based; settings: dose 1-3 µM
[8] = Metabolic stability in mouse liver microsomes assessed as parent compound remaining at 100 uM incubated for 60 mins in presence of NADPH by LC-MS/MS analysis
[9] = tested on: A549; assay: Inhibition of colony formation in human A549 cells at 3 uM incubated for 2 weeks by crystal violet staining based analysis relative to control; assay type: functional; settings: A549, 336 h
[10] = biological target: Apoptosis regulator BAX (Homo sapiens) (UniProt Q07812); assay: Activation of BAX in human A549 cells assessed as increase in cytochrome-c release incubated for 24 hrs by Western blot analysis; assay type: cell-based; settings: filed as activator, dose 5-40 µM
[11] = tested on: A549; assay: Induction of apoptosis in human A549 cells assessed as total apoptotic cells at 5 uM incubated for 48 hrs by Annexin V-FITC/PI staining based flow cytometry analysis (reference value: 4.26%); assay type: functional
[12] = biological target: Cytochrome P450 2C19 (Homo sapiens, UniProt P33261); assay: Inhibition of CYP2C19 in human liver microsomes using S-mephenytoin as substrate prewarmed for 10 mins followed by NADPH addition and measured after 10 mins by LC-MS/MS analysis
[13] = human, microsomes, 1 h, 100 µM
[14] = tested on: A549; assay: Antiproliferative activity against human A549 cells assessed as reduction in cell viability at 1 to 5 uM by MTT assay; assay type: functional, cell-based; settings: dose 1-5 µM, time 24-72 hrs, TDE = time-dependent effect
[15] = Drug recovery in human liver microsomes at 100 uM incubated for 60 mins in absence of NADPH by LC-MS/MS analysis; assay type: ADME, Microsome; settings: read-out: Drug recovery
[16] = biological target: T1, Cytochrome P450 1A2 (Homo sapiens, UniProt P05177); assay: Inhibition of CYP1A2 in human liver microsomes using phenacetin as substrate prewarmed for 10 mins followed by NADPH addition and measured after 10 mins by LC-MS/MS analysis
T1 sequence (P05177 whole entry): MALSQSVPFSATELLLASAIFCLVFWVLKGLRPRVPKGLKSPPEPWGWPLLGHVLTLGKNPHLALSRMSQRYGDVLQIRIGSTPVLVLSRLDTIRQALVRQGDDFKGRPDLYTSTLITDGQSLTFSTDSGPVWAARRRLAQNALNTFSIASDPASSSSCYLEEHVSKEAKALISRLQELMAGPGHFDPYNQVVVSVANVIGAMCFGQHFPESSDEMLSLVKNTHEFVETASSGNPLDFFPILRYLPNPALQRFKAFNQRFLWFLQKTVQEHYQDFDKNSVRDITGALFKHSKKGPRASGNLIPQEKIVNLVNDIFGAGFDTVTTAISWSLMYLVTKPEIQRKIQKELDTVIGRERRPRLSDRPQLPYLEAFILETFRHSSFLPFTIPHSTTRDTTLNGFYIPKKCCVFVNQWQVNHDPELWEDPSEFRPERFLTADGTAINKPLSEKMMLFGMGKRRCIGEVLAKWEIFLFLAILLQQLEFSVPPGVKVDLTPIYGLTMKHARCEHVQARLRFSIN

[17] = tested on: A549; assay: Induction of apoptosis in human A549 cells assessed as total apoptotic cells at 10 uM incubated for 48 hrs by Annexin V-FITC/PI staining based flow cytometry analysis (reference value: 4.26%); assay type: functional
[18] = Metabolic stability in mouse liver microsomes assessed as parent compound remaining at 100 uM incubated for 60 mins in absence of NADPH by LC-MS/MS analysis
[19] = tested on: A549; assay: Induction of apoptosis in human A549 cells assessed as cell rounding at 2.5 to 10 uM incubated for 48 hrs by Hoechst 33342 staining based fluorescence microscopic analysis; assay type: functional; settings: dose 2.5-10 µM
[20] = tested on: NCI-H1581; assay: Antiproliferative activity against human NCI-H1581 cells expressing BAX assessed as cell growth inhibition incubated for 72 hrs by MTT assay; assay type: functional
[21] = tested on: A549; assay: Induction of apoptosis in human A549 cells assessed as early apoptotic cells at 5 uM incubated for 48 hrs by Annexin V-FITC/PI staining based flow cytometry analysis (reference value: 1.09 %); assay type: functional
[22] = Stability in rat plasma assessed as compound remaining measured after 120 mins; assay type: ADME, cell-free; settings: read-out: Stability
[23] = Stability in rat plasma assessed as compound remaining measured after 30 mins; assay type: ADME, cell-free; settings: read-out: Stability
[24] = tested on: K562; assay: Antiproliferative activity against human K562 cells expressing BAX assessed as cell growth inhibition incubated for 72 hrs by trypan blue cell counting analysis; assay type: functional
[25] = tested on: A549; assay: Induction of apoptosis in human A549 cells assessed as nuclear fragmentation at 2.5 to 10 uM incubated for 48 hrs by Hoechst 33342 staining based fluorescence microscopic analysis; assay type: functional, cell-based; settings: dose 2.5-10 µM
[26] = in vitro; settings: mouse, liver microsomes
[27] = tested on: A549; assay: Induction of apoptosis in human A549 cells assessed as live cells at 5 uM incubated for 48 hrs by Annexin V-FITC/PI staining based flow cytometry analysis (reference value: 95.9 %); assay type: functional
[28] = Metabolic stability in human liver microsomes assessed as parent compound remaining at 100 uM incubated for 60 mins in absence of NADPH by LC-MS/MS analysis
[29] = human, 1 h, 100 µM
[30] = biological target: Cytochrome P450 2D6 (Homo sapiens, UniProt P10635); assay: Inhibition of CYP2D6 in human liver microsomes using dextromethorphan as substrate prewarmed for 10 mins followed by NADPH addition and measured after 10 mins by LC-MS/MS analysis
[31] = in vitro; settings: human, liver microsomes
[32] = biological target: Cytochrome P450 2C9 (Homo sapiens, UniProt P11712); assay: Inhibition of CYP2C9 in human liver microsomes using diclofenac as substrate prewarmed for 10 mins followed by NADPH addition and measured after 10 mins by LC-MS/MS analysis
Chain of Cytochrome P450 2C9 (P11712 whole entry): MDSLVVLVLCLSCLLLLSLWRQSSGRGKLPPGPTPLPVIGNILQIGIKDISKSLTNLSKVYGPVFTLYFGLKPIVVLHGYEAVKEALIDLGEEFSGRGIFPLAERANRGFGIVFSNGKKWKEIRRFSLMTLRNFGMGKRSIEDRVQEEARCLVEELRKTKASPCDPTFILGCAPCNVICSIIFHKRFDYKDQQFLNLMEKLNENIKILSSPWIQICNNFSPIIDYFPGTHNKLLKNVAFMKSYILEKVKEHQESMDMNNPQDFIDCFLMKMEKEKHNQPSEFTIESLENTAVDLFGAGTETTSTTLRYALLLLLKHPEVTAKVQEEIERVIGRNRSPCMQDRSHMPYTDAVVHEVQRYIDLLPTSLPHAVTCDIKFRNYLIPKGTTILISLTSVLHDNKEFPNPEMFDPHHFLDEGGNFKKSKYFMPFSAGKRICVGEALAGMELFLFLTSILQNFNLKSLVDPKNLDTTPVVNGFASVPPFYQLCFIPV

Chain of Cytochrome P450 2D6 (P10635 whole entry): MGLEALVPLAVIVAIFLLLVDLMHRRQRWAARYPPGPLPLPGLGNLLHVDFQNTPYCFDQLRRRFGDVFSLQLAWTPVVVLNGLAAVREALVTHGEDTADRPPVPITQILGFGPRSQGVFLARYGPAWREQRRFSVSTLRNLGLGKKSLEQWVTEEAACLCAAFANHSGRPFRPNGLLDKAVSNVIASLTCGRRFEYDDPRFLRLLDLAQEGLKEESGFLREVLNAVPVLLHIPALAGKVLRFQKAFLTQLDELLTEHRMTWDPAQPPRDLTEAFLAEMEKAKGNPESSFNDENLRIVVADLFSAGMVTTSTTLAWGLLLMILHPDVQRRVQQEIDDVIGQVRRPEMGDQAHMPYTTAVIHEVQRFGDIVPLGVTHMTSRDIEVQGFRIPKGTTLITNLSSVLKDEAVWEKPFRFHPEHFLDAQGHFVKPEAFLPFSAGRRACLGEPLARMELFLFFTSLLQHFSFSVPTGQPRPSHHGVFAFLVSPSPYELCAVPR
Chain of Apoptosis regulator BAX (Homo sapiens) (Q07812 whole entry): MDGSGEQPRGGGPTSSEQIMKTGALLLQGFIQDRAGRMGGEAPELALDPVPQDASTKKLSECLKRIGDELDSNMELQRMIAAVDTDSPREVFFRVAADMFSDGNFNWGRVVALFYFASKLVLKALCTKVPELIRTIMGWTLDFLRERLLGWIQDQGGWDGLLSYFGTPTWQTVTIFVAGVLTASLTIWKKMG
Chain of Cytochrome P450 2C19 (P33261 whole entry): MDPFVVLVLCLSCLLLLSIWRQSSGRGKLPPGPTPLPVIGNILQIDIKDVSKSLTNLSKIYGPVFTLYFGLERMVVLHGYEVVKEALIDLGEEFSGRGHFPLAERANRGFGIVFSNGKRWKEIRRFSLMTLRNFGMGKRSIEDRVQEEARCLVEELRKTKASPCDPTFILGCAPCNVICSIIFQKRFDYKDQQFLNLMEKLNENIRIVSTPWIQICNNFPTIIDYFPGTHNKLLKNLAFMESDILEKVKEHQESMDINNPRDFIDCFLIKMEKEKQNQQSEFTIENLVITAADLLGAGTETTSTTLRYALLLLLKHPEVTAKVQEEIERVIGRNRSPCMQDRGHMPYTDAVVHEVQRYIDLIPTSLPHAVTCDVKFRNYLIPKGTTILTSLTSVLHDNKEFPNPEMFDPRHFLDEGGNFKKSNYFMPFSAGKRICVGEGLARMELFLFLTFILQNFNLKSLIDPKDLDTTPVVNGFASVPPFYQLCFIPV

Structure (SMILES): CN(C)C1CCN(C(=O)c2ccc(N3N=C(c4ccccc4)/C(=N/Nc4ccccc4)C3=O)cc2)CC1
- Activity [1]: 4.83%
- Activity [2]: 18.4%
- remaining at 1 h, 100 µM [3]: 97.9%
- GI50 [4]: 2840 nM
- Activity [5]: 25.51%
- Activity [6]: 16.48%
- inhibition [7]: Dose-Dependent Effect
- remaining at 1 h, 100 µM [8]: 74.1%
- inhibition at 3 µM [9]: > 50%
- Activity [10]: Dose-Dependent Effect
- Activity [11]: 15.43%
- IC50 [12]: > 50000 nM
- CLint [13]: < 9.6 µL/min/mg
- Activity [14]: Tde
- remaining at 1 h, 100 µM [15]: 102%
- IC50 [16]: > 50000 nM
- Activity [17]: 73.4%
- remaining at 1 h, 100 µM [18]: 96%
- Activity [19]: Active
- GI50 [20]: 2150 nM
- Activity [21]: 10.6%
- remaining at 2 h [22]: 92.9%
- remaining at 0.5 h [23]: 99.1%
- GI50 [24]: 1410 nM
- Activity [25]: Active
- half-life at 1 h, 100 µM [26]: > 2.42 h
- Activity [27]: 84.2%
- remaining at 1 h, 100 µM [28]: 102%
- CLH [29]: < 8.6 mL/min/kg
- IC50 [30]: > 50000 nM
- half-life at 1 h, 100 µM [31]: > 2.42 h
- IC50 [32]: > 50000 nM

From ChEMBL document CHEMBL5325413, “Optimization of BAX trigger site activator BTSA1 with improved antitumor potency and in vitro ADMET properties” (Eur J Med Chem, 2023)
